ChEMBL document CHEMBL1201862, “PubChem BioAssay data set” (2004)
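Each compound was tested at five concentrations against cells in 96-well plates for 48 hours. The concentration for 50% growth inhibition is given as GI50.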 Active and inactive are the calls of the source. Cut-off read from the data, not from the text of the source: active = GI50 up to about 1.1 µM and inactive = higher.

Tests used:
Assay in all cases: NCI-60 cell line screen, 48 h
[1] = test system: PC-3
[2] = test system: COLO 205
[3] = test system: RXF 393
[4] = test system: HOP-62
[5] = test system: ACHN
[6] = test system: NCI-H522
[7] = test system: A549
[8] = test system: MCF7
[9] = test system: TK-10
[10] = test system: HT-29
[11] = test system: OVCAR-8
[12] = test system: CAKI-1
[13] = test system: OVCAR-3
[14] = test system: OVCAR-4
[15] = test system: MDA-MB-435
[16] = test system: M14
[17] = test system: HCT-116
[18] = test system: RPMI-8226
[19] = test system: MDA-MB-231
[20] = test system: LOX IMVI
[21] = test system: SK-MEL-5
[22] = test system: OVCAR-5
[23] = test system: NCI-H23
[24] = test system: MOLT-4
[25] = test system: T47D
[26] = test system: NCI-H460
[27] = test system: Hs-578T
[28] = test system: HCC 2998
[29] = test system: SW-620
[30] = test system: SK-MEL-2
[31] = test system: SNB-19
[32] = test system: K562
[33] = test system: SNB-75
[34] = test system: A498
[35] = test system: HCT-15
[36] = test system: BT-549
[37] = test system: EKVX
[38] = test system: UO-31
[39] = test system: DU-145
[40] = test system: NCI/ADR-RES
[41] = test system: KM12
[42] = test system: UACC-62
[43] = test system: CCRF-CEM
[44] = test system: SF-268
[45] = test system: SK-OV-3
[46] = test system: MDA-N
[47] = test system: HOP-92
[48] = test system: SF-539
[49] = test system: IGROV-1
[50] = test system: SN12C
[51] = test system: SK-MEL-28
[52] = test system: SF-295
[53] = test system: NCI-H226
[54] = test system: U-251
[55] = test system: UACC-257
[56] = test system: 786-0
[57] = test system: Malme-3M

SMILES: Clc1ccc(/N=C2\c3ccccc3CN2c2ccc(Cl)cc2)cc1
- GI50 [1]: 74.3 µM (inactive)
- GI50 [2]: 1.58 µM (inactive)
- GI50 [3]: 29.8 µM (inactive)
- GI50 [4]: 63.1 µM (inactive)
- GI50 [5]: 0.668 µM (active)
- GI50 [6]: 63.2 µM (inactive)
- GI50 [7]: 29.9 µM (inactive)
- GI50 [8]: 5.2 µM (inactive)
- GI50 [9]: 87.5 µM (inactive)
- GI50 [10]: 19 µM (inactive)
- GI50 [11]: > 100 µM (inactive)
- GI50 [12]: > 100 µM (inactive)
- GI50 [13]: 52.7 µM (inactive)
- GI50 [14]: 61.9 µM (inactive)
- GI50 [15]: > 100 µM (inactive)
- GI50 [16]: 31.7 µM (inactive)
- GI50 [17]: 41.4 µM (inactive)
- GI50 [18]: 7.69 µM (inactive)
- GI50 [19]: 53.3 µM (inactive)
- GI50 [20]: > 100 µM (inactive)
- GI50 [21]: 1.43 µM (inactive)
- GI50 [22]: > 100 µM (inactive)
- GI50 [23]: 89.5 µM (inactive)
- GI50 [24]: > 100 µM (inactive)
- GI50 [25]: 0.219 µM (active)
- GI50 [26]: 62.8 µM (inactive)
- GI50 [27]: > 100 µM (inactive)
- GI50 [28]: 28.4 µM (inactive)
- GI50 [29]: > 100 µM (inactive)
- GI50 [30]: 4.68 µM (inactive)
- GI50 [31]: > 100 µM (inactive)
- GI50 [32]: 0.119 µM (active)
- GI50 [33]: 63.8 µM (inactive)
- GI50 [34]: > 100 µM (inactive)
- GI50 [35]: > 100 µM
- GI50 [36]: > 100 µM (inactive)
- GI50 [37]: > 100 µM (inactive)
- GI50 [38]: > 100 µM (inactive)
- GI50 [39]: 11.6 µM (inactive)
- GI50 [40]: > 100 µM (inactive)
- GI50 [41]: 77.8 µM (inactive)
- GI50 [42]: > 100 µM (inactive)
- GI50 [43]: < 0.01 µM (active)
- GI50 [44]: 47.1 µM (inactive)
- GI50 [45]: > 100 µM (inactive)
- GI50 [46]: 30.1 µM (inactive)
- GI50 [47]: 39.9 µM (inactive)
- GI50 [48]: 30.2 µM (inactive)
- GI50 [49]: 39.8 µM (inactive)
- GI50 [50]: > 100 µM (inactive)
- GI50 [51]: 64 µM (inactive)
- GI50 [52]: 10.4 µM (inactive)
- GI50 [53]: > 100 µM (inactive)
- GI50 [54]: > 100 µM (inactive)
- GI50 [55]: > 100 µM (inactive)
- GI50 [56]: > 100 µM (inactive)

SMILES: COc1cccc(/C=N/n2c(-c3ccccc3)n[nH]c2=O)c1
- GI50 [1]: > 100 µM (inactive)
- GI50 [2]: > 100 µM (inactive)
- GI50 [4]: 25.9 µM (inactive)
- GI50 [5]: > 100 µM (inactive)
- GI50 [7]: 91.2 µM (inactive)
- GI50 [8]: 75.5 µM (inactive)
- GI50 [10]: > 100 µM (inactive)
- GI50 [11]: 29.8 µM (inactive)
- GI50 [12]: 53 µM (inactive)
- GI50 [13]: > 100 µM (inactive)
- GI50 [14]: > 100 µM (inactive)
- GI50 [15]: > 100 µM (inactive)
- GI50 [16]: > 100 µM (inactive)
- GI50 [17]: 28.2 µM (inactive)
- GI50 [18]: > 100 µM (inactive)
- GI50 [19]: 29.5 µM (inactive)
- GI50 [22]: > 100 µM (inactive)
- GI50 [23]: 27.3 µM (inactive)
- GI50 [24]: > 100 µM (inactive)
- GI50 [25]: 27.5 µM (inactive)
- GI50 [26]: 42.2 µM (inactive)
- GI50 [27]: 22.7 µM (inactive)
- GI50 [28]: > 100 µM (inactive)
- GI50 [29]: > 100 µM (inactive)
- GI50 [30]: 34.6 µM (inactive)
- GI50 [31]: 35.7 µM (inactive)
- GI50 [32]: > 100 µM (inactive)
- GI50 [33]: 34.3 µM (inactive)
- GI50 [34]: 24.4 µM (inactive)
- GI50 [35]: > 100 µM
- GI50 [36]: 26.9 µM (inactive)
- GI50 [37]: > 100 µM (inactive)
- GI50 [57]: > 100 µM (inactive)
- GI50 [38]: > 100 µM (inactive)
- GI50 [39]: 49.5 µM (inactive)
- GI50 [40]: 39.4 µM (inactive)
- GI50 [41]: 85.5 µM (inactive)
- GI50 [42]: 72.4 µM (inactive)
- GI50 [43]: > 100 µM (inactive)
- GI50 [44]: 17.5 µM (inactive)
- GI50 [45]: 44.2 µM (inactive)
- GI50 [46]: > 100 µM (inactive)
- GI50 [48]: 28.1 µM (inactive)
- GI50 [50]: 87.7 µM (inactive)
- GI50 [51]: > 100 µM (inactive)
- GI50 [52]: 21.2 µM (inactive)
- GI50 [53]: 43.7 µM (inactive)
- GI50 [54]: 34.5 µM (inactive)
- GI50 [55]: 42.6 µM (inactive)
- GI50 [56]: 40.8 µM (inactive)

SMILES: C=CCNC(NCC=C)=C(C(Cl)=C(Cl)Cl)[N+](=O)[O-]
- GI50 [1]: 51.2 µM (inactive)
- GI50 [2]: 19.7 µM (inactive)
- GI50 [4]: > 100 µM (inactive)
- GI50 [5]: 31.8 µM (inactive)
- GI50 [7]: > 100 µM (inactive)
- GI50 [8]: 35.9 µM (inactive)
- GI50 [10]: 54.6 µM (inactive)
- GI50 [11]: 16.6 µM (inactive)
- GI50 [12]: 30.5 µM (inactive)
- GI50 [13]: 26.2 µM (inactive)
- GI50 [14]: 31.8 µM (inactive)
- GI50 [15]: 32 µM (inactive)
- GI50 [16]: 31.9 µM (inactive)
- GI50 [17]: 30.4 µM (inactive)
- GI50 [18]: 49.1 µM (inactive)
- GI50 [19]: > 100 µM (inactive)
- GI50 [22]: > 100 µM (inactive)
- GI50 [23]: 34.1 µM (inactive)
- GI50 [24]: 31.5 µM (inactive)
- GI50 [25]: 30.5 µM (inactive)
- GI50 [26]: > 100 µM (inactive)
- GI50 [27]: 25.4 µM (inactive)
- GI50 [28]: > 100 µM (inactive)
- GI50 [29]: 22.9 µM (inactive)
- GI50 [30]: > 100 µM (inactive)
- GI50 [31]: > 100 µM (inactive)
- GI50 [32]: 16.7 µM (inactive)
- GI50 [33]: 89.1 µM (inactive)
- GI50 [34]: > 100 µM (inactive)
- GI50 [35]: 16.8 µM
- GI50 [36]: 26 µM (inactive)
- GI50 [37]: 67.3 µM (inactive)
- GI50 [57]: 16.4 µM (inactive)
- GI50 [38]: 37.5 µM (inactive)
- GI50 [39]: 78.3 µM (inactive)
- GI50 [40]: 43.2 µM (inactive)
- GI50 [41]: 65.5 µM (inactive)
- GI50 [42]: > 100 µM (inactive)
- GI50 [43]: 26.5 µM (inactive)
- GI50 [44]: 53.8 µM (inactive)
- GI50 [45]: > 100 µM (inactive)
- GI50 [46]: 32.5 µM (inactive)
- GI50 [48]: 21.3 µM (inactive)
- GI50 [50]: 59.2 µM (inactive)
- GI50 [51]: 79.3 µM (inactive)
- GI50 [52]: > 100 µM (inactive)
- GI50 [53]: > 100 µM (inactive)
- GI50 [54]: > 100 µM (inactive)
- GI50 [55]: > 100 µM (inactive)
- GI50 [56]: 34.9 µM (inactive)
